molecular target: T1, EP2 receptor (Homo sapiens, UniProt P43116); assay: EP2 potency assay (cAMP TR-FRET, LANCE Ultra cAMP kit, antagonism of prostaglandin E2 at EC80); type: cell-based; conditions: CHO-K1 cells transfected with EP2 receptor
T1 construct: expressed in transfected cells; host or cells: CHO-K1 cells (ATCC), transiently transfected with FuGENE 6
Experimental: Compound potency was measured using a cAMP TR-FRET assay.
CHO-K1 cells (ATCC) were seeded at a density of 9.75×10^5 in 6 cm plates, and then on the following day cell media was changed to Opti-Mem I reduced serum media (Gibco), and transfected with a plasmid for expression of the EP2 receptor (the target receptor of interest), using the FuGENE 6 Transfection reagent (Promega). After 6 hours incubation, the cell media was replaced with F12 medium supplemented with 10% FBS and 100 U/ml Pen-Strep. 24 hours after transfection, cells were harvested and seeded at a density of 3000 cells/well in a 384 well plate to perform the cAMP assay, using the LANCE Ultra cAMP assay kit (PerkinElmer).
For each test compound of interest, 10 nl/well of serially diluted test compound was added to each well, resulting in a range of 10 serially diluted compound concentrations from 10000 nM to 0.038 nM, with duplicate wells for each concentration. Plates were then centrifuged at 1000 rpm for 1 min, agitated at 600 rpm at R.T. for 2 min, and incubated at 25° C. for 5 min. The reference agonist, prostaglandin E2 (MCE), was added to each well at the appropriate concentration to reach its EC80 value. Plates were then centrifuged at 1000 rpm for 1 min, agitated at 600 rpm at R.T. for 2 min, and incubated at 25° C. for 30 min.
To measure levels of cAMP, 5 μl/well of Eu-cAMP working solution and 5 μl/well of Ulight-anti-cAMP working solution were added to each well, and plate was centrifuged at 1000 rpm for 1 min, agitated at 600 rpm at R.T. for 2 min, and incubated at 25° C. for 15 min. Levels of TR-FRET fluorescence were measured in each well using an EnVision microplate reader (excitation wavelength=337 nm and emission wavelength=615 and 665 nm). A dose-response curve was prepared by plotting percent inhibition for each compound concentration, and then IC50 was calculated by fitting a curve to the plotted values and extrapolating the IC50 concentration.
Potency data is grouped into categories of AA (IC50<100 nM); A (IC50=100 to 500 nM); B (IC50=500 nM to 1 μM); C (IC50=1 μM to 5 μM); and D (IC50>5 μM).

T1 sequence (P43116 whole entry): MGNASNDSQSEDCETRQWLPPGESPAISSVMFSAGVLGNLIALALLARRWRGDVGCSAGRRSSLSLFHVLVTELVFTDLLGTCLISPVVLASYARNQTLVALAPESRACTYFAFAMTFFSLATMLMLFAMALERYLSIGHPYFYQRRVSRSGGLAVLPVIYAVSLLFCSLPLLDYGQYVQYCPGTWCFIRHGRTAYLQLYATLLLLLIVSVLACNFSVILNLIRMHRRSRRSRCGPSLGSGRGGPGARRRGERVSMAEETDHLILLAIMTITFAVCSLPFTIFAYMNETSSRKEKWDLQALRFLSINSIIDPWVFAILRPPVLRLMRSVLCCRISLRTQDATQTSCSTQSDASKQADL

Row | Compound | IC50 [µM]
1 | COc1ccc(C(N2CCC(COc3ccc(-c4ccc(C#N)cc4)cc3)(C(=O)O)C2)C(F)(F)F)cc1 (stereo not drawn) [Compound 4-1, 3-[({4′-cyano-[1,1′-biphenyl]-4-yl}oxy)methyl]-1-[2,2,2-trifluoro-1-(4-methoxyphenyl)ethyl]pyrrolidine-3-carboxylic acid; trifluoroacetic acid] | > 5
2 | COc1ccc(C(=O)N2CCC(COc3ccc(-c4ccc(C#N)cc4)cc3)(c3cc[nH]c(=O)c3)C2)cc1 (stereo not drawn) [Compound 4-16, 4′-{[1-(4-methoxybenzoyl)-3-(2-oxo-1H-pyridin-4-yl)pyrrolidin-3-yl]methoxy}-[1,1′-biphenyl]-4-carbonitrile] | > 5
3 | COc1ccc(C(=O)N2CCC(COc3ccc(-c4ccc(C#N)cc4)cc3)(C(=O)NS(=O)(=O)CC(F)(F)F)C2)cc1 (stereo not drawn) [Compound 4-26, 3-[({4′-cyano-[1,1′-biphenyl]-4-yl}oxy)methyl]-1-(4-methoxybenzoyl)-N-(2,2,2-trifluoroethanesulfonyl)pyrrolidine-3-carboxamide] | 1 to 5
4 | COCS(=O)(=O)NC(=O)C1(COc2ccc(-c3ccc(C#N)cc3)cc2)CCN(C(=O)c2ccc(OC)cc2)C1 (stereo not drawn) [Compound 4-27, 3-[({4′-cyano-[1,1′-biphenyl]-4-yl}oxy)methyl]-1-(4-methoxybenzoyl)-N-methoxymethanesulfonylpyrrolidine-3-carboxamide] | 0.1 to 0.5
5 | COc1ccc(C(=O)N2CCC(COc3ccc(-c4ccc(C#N)cc4)cc3)(C(=O)NS(=O)(=O)C(C)(C)C)C2)cc1 (stereo not drawn) [Compound 4-29, 3-[({4′-cyano-[1,1′-biphenyl]-4-yl}oxy)methyl]-1-(4-methoxybenzoyl)-N-(2-methylpropane-2-sulfonyl)pyrrolidine-3-carboxamide] | > 5

Next, values leading:

Row | IC50 [µM] | Compound
6 | 1 to 5 | COc1ccc(C(=O)N2CCC(COc3ccc(-c4ccc(C#N)cc4)cc3)(C(=O)NO)C2)cc1 (stereo not drawn) [Compound 4-13, 3-(((4′-cyano-[1,1′-biphenyl]-4-yl)oxy)methyl)-N-hydroxy-1-(4-methoxybenzoyl)pyrrolidine-3-carboxamide]
7 | > 5 | COc1ccc(C(=O)N2CCC(COc3ccc(-c4ccc(C#N)cc4)cc3)(C(=O)NCC(F)(F)F)C2)cc1 (stereo not drawn) [Compound 4-20, 3-(((4′-cyano-[1,1′-biphenyl]-4-yl)oxy)methyl)-1-(4-methoxybenzoyl)-N-(2,2,2-trifluoroethyl)pyrrolidine-3-carboxamide]
8 | 1 to 5 | COc1ccc(C(=O)N2CCC(COc3ccc(-c4ccc(C#N)cc4)cc3)(C(=O)NC#N)C2)cc1 (stereo not drawn) [Compound 4-21, N-cyano-3-(((4′-cyano-[1,1′-biphenyl]-4-yl)oxy)methyl)-1-(4-methoxybenzoyl)pyrrolidine-3-carboxamide]
9 | 1 to 5 | COc1ccc(C(=O)N2CCC(COc3ccc(-c4ccc(C#N)cc4)cc3)(C(=O)N(C)O)C2)cc1 (stereo not drawn) [Compound 4-22, 3-(((4′-cyano-[1,1′-biphenyl]-4-yl)oxy)methyl)-N-hydroxy-1-(4-methoxybenzoyl)-N-methylpyrrolidine-3-carboxamide]
10 | > 5 | CONC(=O)C1(COc2ccc(-c3ccc(C#N)cc3)cc2)CCN(C(=O)c2ccc(OC)cc2)C1 (stereo not drawn) [Compound 4-23, 3-(((4′-cyano-[1,1′-biphenyl]-4-yl)oxy)methyl)-N-methoxy-1-(4-methoxybenzoyl)pyrrolidine-3-carboxamide]
11 | 0.5 to 1 | CCS(=O)(=O)NC(=O)C1(COc2ccc(-c3ccc(C#N)cc3)cc2)CCN(C(=O)c2ccc(OC)cc2)C1 (stereo not drawn) [Compound 4-25, 3-[({4′-cyano-[1,1′-biphenyl]-4-yl}oxy)methyl]-N-(ethanesulfonyl)-1-(4-methoxybenzoyl)pyrrolidine-3-carboxamide]
12 | 0.5 to 1 | COc1ccc(C(=O)N2CCC(COc3ccc(-c4ccc(C#N)cc4)cc3)(C(=O)NS(=O)(=O)C(C)C)C2)cc1 (stereo not drawn) [Compound 4-28, 3-[({4′-cyano-[1,1′-biphenyl]-4-yl}oxy)methyl]-1-(4-methoxybenzoyl)-N-(propane-2-sulfonyl)pyrrolidine-3-carboxamide]
